For this assay, the system named is Cryptosporidium parvum. In words: MMV: Cryptosporidium parvum oocysts (Iowa Strain) were prepared for use by treatment with 10 mM HCl (37 degrees C, 10 min) followed by 2 mM sodium taurocholate in phosphate-buffered saline (PBS) with Ca2+ and Mg2+ (16 degrees C, 10 min) in order to stimulate excystation. The high-throughput screen was carried out by inoculating >90% confluent human ileocecal adenocarcinoma (HCT-8) cells (ATCC) with ~5.5 x 10^3 primed oocysts per well. Experimental compounds or DMSO (vehicle) were added three hours after infection, and cells were incubated for 48 hours. The format is functional.

Experimental findings from ChEMBL document CHEMBL3137356, “MMV Box Cryptosporidium parvum screening set” are described below.

For orientation: Inhibition means the change of the read-out against control, counted positive when it falls. `O=C(Nc1ccccc1O)c1ccc(Oc2cccc(C(=O)Nc3ccccc3O)c2)cc1`: the Inhibition is recorded as -14.93%.
The result for `CCN(CC)CCNc1ncnc2c1[nH]c1ccc(Br)cc12` reads -47.02%; that for `O=C(NNc1cc(N2CCCC2)nc(N2CCCC2)n1)c1ccccc1`, -52.02%; that for `COc1ccc(OC)c(C2C3=C(CC(C)(C)CC3=O)N(c3ccc(Cl)c(Cl)c3)C3=C2C(=O)CC(C)(C)C3)c1`, 2.896%.
The result for `CCOc1cc2c(cc1OCC)C(c1cc(OC)c(O)cc1Cl)NCC2` (stereo not drawn) reads -16.38%.
The figure for `COc1nc(Nc2ccc(C(C)C)cc2)nc(OC)n1` is 4.363%; for `Cc1ccc(Nc2nc(N)c3ccccc3n2)cc1Cl` it is 40.42%.
As for `CC1=C(CC(=O)c2cccc([N+](=O)[O-])c2)C(=O)c2ccccc2C1=O`, the Inhibition was -15.31%.
The figure for `Br.Cc1ccc(C)c(-c2csc(Nc3ccc(C)c(C)c3)n2)c1` is -25.23%; for `CCN1CCN(Cc2ccc(NC(=O)c3cc4ccc5cccnc5c4[nH]3)cc2)CC1` it is -49.16%.
Turning to `O=C(Cc1ccccc1)NC(c1ccc(Cl)cc1)c1c(O)ccc2ccccc12` (stereo not drawn), the Inhibition is listed as -13.28%.
In the case of `CCn1c(SCC(=O)Nc2cc(C(F)(F)F)ccc2Cl)nc2ccccc2c1=O`, the Inhibition was -35.13%.
The figure for `CCOC(=O)c1c(C)n(-c2ccc(Cl)cc2)c2ccc(OC(=O)C=Cc3ccccc3)cc12` is -77.36%; for `CCOC(=O)C1CCN(C(=O)CN2C(=O)c3ccccc3C2c2c[nH]c3ccccc23)CC1` (stereo not drawn) it is 23.12%; for `CCCc1c(C)nc2ccc(Br)cc2c1O` it is -49.14%.
The result for `CCCCCn1c(=N)n(CC(O)COc2cccc(C)c2)c2ccccc21.Cl` (stereo not drawn) reads -6.708%; that for `CN(C)CCCNc1c2ccccc2nc2ccccc12`, 55.64%.
`COc1ccc(-c2cc3c(nn2)-c2ccccc2C3=O)cc1`: the Inhibition is on record as -19.28%.
For `CC(C)(C)c1ccc(C(=O)Nc2nc3ccccc3s2)cc1`, the Inhibition came to 63.38%.
Consider `CC(C)(C)CC(C)(C)NCC(O)COc1ccc2c(c1)CCC2.Cl` (stereo not drawn), for which the Inhibition is listed as -49.34%.
The figure for `Cc1ccc(CSCc2ccc(C(=O)NC3CC3)o2)cc1` is -11.49%.
The result for `COc1ccc(Nc2nc(NCc3ccccc3)c3ccccc3n2)cc1` reads 49.98%; that for `CN(C)c1ccc(-c2nc3cc(N)ccc3[nH]2)cc1`, -41.71%; that for `COc1ccc2c(c1OC)C(=O)N1c3ccccc3N=C(c3ccc(C)cc3)CC21` (stereo not drawn), -57.7%.
Regarding `CCN(CC)CCCNc1nc(-c2ccc(Cl)cc2)nc2ccccc12`, the Inhibition is listed as -30.51%.
As for `COc1cc(C(=O)Nc2nc3c(cc4c5c(cccc53)CC4)s2)cc(OC)c1OC`, the Inhibition was -26.05%.
The figure for `COc1ccccc1N1C(=N)SC(=Cc2ccc(OCc3ccccc3F)cc2)C1=O` is -8.054%; for `CCCCc1ccc(NS(=O)(=O)c2cc3c4c(c2)CCN4C(=O)CC3)cc1` it is 4.064%.
The result for `O=C(CCl)NCCOc1ccc(Cl)cc1Cl` reads 7.535%; that for `O=C(Nc1ccc(-c2nc3cc(NC(=O)c4ccc(Cl)cc4)ccc3[nH]2)cc1)c1ccc(Cl)cc1`, -6.932%; that for `CN(C)CCNc1cc(-c2ccccc2)nc2ccccc12`, -2.54%.
The result for `COc1cccc(C(=O)Nc2ccc(-c3nc4ccccc4[nH]3)cc2)c1` reads -26.13%; that for `Oc1ccc(Br)cc1CN1CCN(Cc2ccc(Cl)cc2)CC1`, -16.25%; that for `Oc1ccc(-c2nc(-c3ccc4oc5ccc(-c6[nH]c(-c7ccc(O)cc7)nc6-c6ccccc6)cc5c4c3)c(-c3ccccc3)[nH]2)cc1`, -17.83%.
Consider `CCOc1ccc(-c2nc(NC(=O)c3cccc(S(C)(=O)=O)c3)sc2C)cc1`, for which the Inhibition is given as 26.25%.
As to `CCCCNc1nc(NC(C)(C)C)nc(NC(C)(C)C)n1`, the Inhibition was found to be 20.51%.
The result for `COc1ccc(C(=O)Nc2ccc3nc(N4CCCCC4)cc(C)c3c2)cc1OC` reads 6.852%; that for `COc1ccc(C2c3ccc4ccccc4c3Oc3ncn(CCCn4ccnc4)c(=N)c32)cc1OC` (stereo not drawn), 5.542%.
On to `CC(C)CNC(=O)c1c(N)n(CCc2ccccc2F)c2nc3ccccc3nc12`, for which the Inhibition was -31.92%.
The figure for `COc1cc(C(=O)ON=C(N)Cc2cccc3ccccc23)cc(OC)c1OC` is 26.07%; for `COc1ccc(Nc2nc(N/N=C/c3ccc(O)cc3)nc(Nc3ccc([N+](=O)[O-])cc3)n2)cc1` it is -49.8%; for `O=C(Nc1cccc(C(F)(F)F)c1)c1cc(Cl)ccc1O` it is 41.48%.
The figure for `OC(CNC1CCCCC1)Cn1c2ccccc2c2ccccc21` (stereo not drawn) is -24.91%; for `Cc1cc(C=C2SC(=Nc3ccccc3)N(C3CCCC3)C2=O)c(C)n1-c1ccc(Cl)cc1` it is 0.2141%.
The figure for `Cc1cccc(Nc2nc(N)c3ccccc3n2)c1.Cl` is 39.08%; for `COc1ccc2nc(C)cc(Nc3cccc(O)c3)c2c1.Cl` it is -14.76%; for `O=C(NC1CCN(Cc2ccccc2)CC1)c1cc(-c2cccnc2)nc2ccc(Cl)cc12` it is -40.68%.
For `CN1C=C(c2ccc3ccccc3n2)C(c2c[nH]c3ccccc23)c2ccccc21` (stereo not drawn), the Inhibition is on record as -24.69%.
On to `CCc1ccc(Nc2cc(C)c3ccc(O)cc3n2)cc1.Cl`, for which the Inhibition is -30.31%.
The result for `CN1CCN(c2ncnc3c2[nH]c2ccc(Cl)cc23)CC1` reads -51.61%; that for `Cc1cc(=O)oc2c1ccc1oc(C(=O)c3ccccc3)c(C)c12`, 64.86%.
The result for `CCn1c(CN2CCN(Cc3ccccc3)CC2)nc2cc(NC(=O)c3cccs3)ccc21` reads -14.21%; that for `CCN(CC)CCNc1ncnc2c1[nH]c1ccc(Cl)cc12`, -27.98%.
The result for `COCCNCC(O)Cn1c2ccc(Cl)cc2c2cc(Cl)ccc21` (stereo not drawn) reads -20.11%.
Turning to `CCCCCCC(O)(c1ccc(F)cc1)C(CN1CCOCC1)c1ccccc1.Cl` (stereo not drawn), the Inhibition worked out at 35.55%.
As for `CCOc1ccc(CN2CCN(CC(O)COc3ccc(OCC(O)CN4CCN(Cc5ccc(OCC)cc5)CC4)cc3)CC2)cc1` (stereo not drawn), the Inhibition is 1.883%.
As to `COc1ccc(-c2cn3c(C(=O)Nc4ccccc4Cl)c(-c4ccccc4)c4c3n2CCCC4)cc1`, the Inhibition was determined as 34.31%.
The result for `Cc1cccc(N2C(=O)C3C(C2=O)C2(c4ccccc4)C(=O)C3(c3ccccc3)C(c3ccc4c(c3)OCO4)=C2c2ccc3c(c2)OCO3)c1` (stereo not drawn) reads 1.02%.
As for `CN(C)CCCNCc1ccc(-c2ccc(F)c(Cl)c2)o1.Cl`, the Inhibition is on record as -9.329%.
Regarding `COc1cccc(Nc2nc(NCCO)c3ccccc3n2)c1.Cl`, the Inhibition is listed as 65.39%.
The figure for `c1ccc(-c2ccc(-c3nc4ccccc4[nH]3)cc2)cc1` is 27.1%.
The result for `O=C(Nc1ccc(Cl)cc1C(=O)Nc1ccncc1)c1ccc(Cl)cc1Cl` reads -3.564%; that for `COc1ccc(C(=O)Nc2ccc(Cl)cc2C(=O)Nc2ccncc2)cc1`, -23.38%; that for `COc1ccc(-c2c(C)nn3c(N)c(C#N)cnc23)cc1OC`, -20.9%.
`CSc1ccccc1C(=O)Nc1nc(-c2ccccn2)cs1`: the Inhibition worked out at 75.6%.
For `COc1ccc2c(=O)cc(C(Cl)(Cl)Cl)oc2c1`, the Inhibition stood at 71.77%.
The figure for `COc1ccc(C2=C(c3ccc(OC)cc3)C3(c4ccccc4)C(=O)C2(c2ccccc2)C2C(=O)N(c4ccc(C)cc4)C(=O)C23)cc1` (stereo not drawn) is 63.25%.
On to `Cc1cc(C)cc(Nc2cc(C)nc3nc(C(F)(F)F)nn23)c1`, for which the Inhibition was -21.92%.
The result for `CCOc1c(Br)cc(C2C(C(=O)OC)=CN(C)C=C2C(=O)OC)cc1OC` reads -4.752%; that for `Cc1ccccc1OCCSc1nc2ccc(NC(=O)c3cccs3)cc2s1`, -27.25%.
The figure for `O=C(Nc1ccc(-c2nc3ccccc3[nH]2)cc1)c1ccc(Cl)c(Cl)c1` is 10.57%.
Consider `CC(C)(C)C(=O)Nc1ccc(C(=O)Nc2cccc(-c3nc4ccccc4[nH]3)c2)cc1`, for which the Inhibition is recorded as 18.85%.
The result for `CCOC(=O)c1ccc2nc(-c3ccccc3)cc(O)c2c1` reads -8.454%; that for `Cc1cc(NC(=O)c2ccc(-c3ccccc3)cc2)no1`, 13.55%; that for `O=C(NCC(c1ccsc1)N1CCCCCC1)c1ccc(C(F)(F)F)cc1` (stereo not drawn), -22.24%.
The result for `Cc1cc(N2CCCC2)nc(Nc2ccc(NC(=O)CCc3ccccc3)cc2)n1` reads 13.46%; that for `Cc1cc(N(C)C)nc(Nc2ccc(NC(=O)Nc3ccccc3)cc2)n1`, -29.16%; that for `Cc1cc(NCCN2CCCCC2)c2ccc3ccccc3c2n1`, -25.58%.
The result for `COc1ccc2nc(C)cc(Nc3ccccc3O)c2c1` reads -4.901%; that for `CCCCc1c(CCC)c(=N)c2ccccc2n1C.I`, 11.94%.
In the case of `Cc1nc2ccccc2c(O)c1CC=C(Cl)Cl`, the Inhibition is given as -7.486%.
The result for `Cc1ccc2nc(C)cc(Nc3cccc(C(F)(F)F)c3)c2c1.Cl` reads 53.25%; that for `CCCc1c(CC)c(=N)c2ccccc2n1C`, -20.98%.
The result for `COc1ccc(-n2ccnc2SCC(=O)Nc2cc(C)ccc2C)c(OC)c1` reads -14.53%; that for `COc1ccc(C2c3ccc4ccccc4c3Oc3ncn(CCCN(C)C)c(=N)c32)cc1` (stereo not drawn), 9.024%.
The result for `COc1ccc(-c2nonc2NC(=O)c2cccc(Cl)c2)cc1OC` reads 23.52%.
With `COc1ccc(Nc2cc(C)nc(NCc3ccccc3)n2)cc1`, the Inhibition is recorded as -1.126%.
The result for `OC(Cn1nnc2ccccc21)Cn1c2ccc(Br)cc2c2cc(Br)ccc21` (stereo not drawn) reads -11.24%.
